From ChEMBL document CHEMBL1201862, “PubChem BioAssay data set” (2004)
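Compound exposure: 48 hours, 5 concentrations, 96-well plates. Here, GI50 denotes the concentration required for 50% inhibition of growth.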 The source made the active and inactive calls. No stated cut-off is given here; in the data, active = GI50 up to about 1.1 µM and inactive = higher.

Columns and labels:
Assay in all cases: NCI anticancer screen, dose series, 48 h
A498 = tested on: A498
A549 = tested on: A549
HCT-116 = tested on: HCT-116
HL-60 = tested on: HL-60
HT-29 = tested on: HT-29
MCF7 = tested on: MCF7
MDA-MB-231 = tested on: MDA-MB-231
MOLT-4 = tested on: MOLT-4
Malme-3M = tested on: Malme-3M
NCI-H23 = tested on: NCI-H23
OVCAR-3 = tested on: OVCAR-3
OVCAR-4 = tested on: OVCAR-4
OVCAR-8 = tested on: OVCAR-8
PC-3 = tested on: PC-3
SF-539 = tested on: SF-539
SK-MEL-28 = tested on: SK-MEL-28
SK-MEL-5 = tested on: SK-MEL-5
U-251 = tested on: U-251

## O=C1CSC(c2cccc(Cl)c2)N1c1ccc(-c2ccc(-n3c(-c4ccccc4)nc4ccccc4c3=O)cc2)cc1 (configuration not stated)
A498
  GI50: > 100 µM (inactive)
A549
  GI50: 54.2 µM (inactive)
HCT-116
  GI50: 45.6 µM (inactive)
HL-60
  GI50: 21.8 µM (inactive)
HT-29
  GI50: 38.9 µM (inactive)
MCF7
  GI50: 30.8 µM (inactive)
MDA-MB-231
  GI50: 50.6 µM (inactive)
MOLT-4
  GI50: 20.1 µM (inactive)
Malme-3M
  GI50: 46 µM (inactive)
NCI-H23
  GI50: 58.5 µM (inactive)
OVCAR-3
  GI50: 36 µM (inactive)
OVCAR-4
  GI50: 35.1 µM (inactive)
OVCAR-8
  GI50: 46.1 µM (inactive)
PC-3
  GI50: 29.8 µM (inactive)
SF-539
  GI50: 72.3 µM (inactive)
SK-MEL-28
  GI50: 75.3 µM (inactive)
SK-MEL-5
  GI50: 25.5 µM (inactive)
U-251
  GI50: 52.1 µM (inactive)

## N#Cc1cc2c(cc1C#N)/C(=N\c1cccc(N)n1)N/C2=N\c1cccc(N)n1
A498
  GI50: > 10 µM (inactive)
A549
  GI50: 40.8 µM (inactive)
HCT-116
  GI50: 11.1 µM (inactive)
HL-60
  GI50: 19.1 µM (inactive)
HT-29
  GI50: 23.1 µM (inactive)
MCF7
  GI50: 18.6 µM (inactive)
MDA-MB-231
  GI50: 15.2 µM (inactive)
MOLT-4
  GI50: 3.78 µM (inactive)
Malme-3M
  GI50: 14.3 µM (inactive)
NCI-H23
  GI50: 16.1 µM (inactive)
OVCAR-3
  GI50: 29.5 µM (inactive)
OVCAR-8
  GI50: 23.6 µM (inactive)
PC-3
  GI50: 17.9 µM (inactive)
SF-539
  GI50: 6.75 µM (inactive)
SK-MEL-28
  GI50: 18.8 µM (inactive)
SK-MEL-5
  GI50: 7.16 µM (inactive)
U-251
  GI50: 32.5 µM (inactive)

## Cc1nc(N)c(N2CCN(S(N)(=O)=O)CC2)c(O)n1
A498
  GI50: > 100 µM (inactive)
A549
  GI50: > 100 µM (inactive)
HCT-116
  GI50: > 100 µM (inactive)
HL-60
  GI50: > 100 µM (inactive)
HT-29
  GI50: > 100 µM (inactive)
MCF7
  GI50: > 100 µM (inactive)
MDA-MB-231
  GI50: > 100 µM (inactive)
MOLT-4
  GI50: > 100 µM (inactive)
Malme-3M
  GI50: > 100 µM (inactive)
NCI-H23
  GI50: > 100 µM (inactive)
OVCAR-3
  GI50: > 100 µM (inactive)
OVCAR-4
  GI50: > 100 µM (inactive)
OVCAR-8
  GI50: > 100 µM (inactive)
PC-3
  GI50: > 100 µM (inactive)
SF-539
  GI50: > 100 µM (inactive)
SK-MEL-28
  GI50: > 100 µM (inactive)
U-251
  GI50: > 100 µM (inactive)

## O=C(/C=C(\O)c1cc(-c2ccccc2)n(-c2ccccc2)n1)c1ccccc1
A498
  GI50: > 100 µM (inactive)
A549
  GI50: 4.4 µM (inactive)
HCT-116
  GI50: 5.64 µM (inactive)
HL-60
  GI50: 4.43 µM (inactive)
HT-29
  GI50: 3.58 µM (inactive)
MCF7
  GI50: 9.73 µM (inactive)
MDA-MB-231
  GI50: 3.49 µM (inactive)
MOLT-4
  GI50: 0.415 µM (active)
Malme-3M
  GI50: 5.09 µM (inactive)
NCI-H23
  GI50: 9.71 µM (inactive)
OVCAR-3
  GI50: 4.84 µM (inactive)
OVCAR-8
  GI50: 3.2 µM (inactive)
PC-3
  GI50: 9.29 µM (inactive)
SF-539
  GI50: 10.9 µM (inactive)
SK-MEL-28
  GI50: 0.631 µM (active)
SK-MEL-5
  GI50: 8.85 µM (inactive)
U-251
  GI50: 2.84 µM (inactive)

## Cc1cc(C)nc(SCCc2cccc[n+]2C)n1
A498
  GI50: 60.7 µM (inactive)
A549
  GI50: 34.4 µM (inactive)
HCT-116
  GI50: > 100 µM (inactive)
HL-60
  GI50: > 100 µM (inactive)
HT-29
  GI50: > 100 µM (inactive)
MCF7
  GI50: > 100 µM (inactive)
MDA-MB-231
  GI50: > 100 µM (inactive)
MOLT-4
  GI50: > 100 µM (inactive)
Malme-3M
  GI50: > 100 µM (inactive)
NCI-H23
  GI50: > 100 µM (inactive)
OVCAR-3
  GI50: > 100 µM (inactive)
OVCAR-4
  GI50: > 100 µM (inactive)
OVCAR-8
  GI50: > 100 µM (inactive)
PC-3
  GI50: > 100 µM (inactive)
SK-MEL-28
  GI50: > 100 µM (inactive)
SK-MEL-5
  GI50: > 100 µM (inactive)
U-251
  GI50: > 100 µM (inactive)

## COc1nc2ncc([C@@H](OC(C)=O)[C@@H](COC(C)=O)OC(C)=O)nc2c(=O)[nH]1
A498
  GI50: > 100 µM (inactive)
A549
  GI50: > 100 µM (inactive)
HCT-116
  GI50: > 100 µM (inactive)
HL-60
  GI50: > 100 µM (inactive)
HT-29
  GI50: > 100 µM (inactive)
MCF7
  GI50: > 100 µM (inactive)
MDA-MB-231
  GI50: > 100 µM (inactive)
Malme-3M
  GI50: > 100 µM (inactive)
OVCAR-3
  GI50: > 100 µM (inactive)
OVCAR-4
  GI50: > 100 µM (inactive)
OVCAR-8
  GI50: > 100 µM (inactive)
PC-3
  GI50: > 100 µM (inactive)
SF-539
  GI50: > 100 µM (inactive)
SK-MEL-28
  GI50: > 100 µM (inactive)
SK-MEL-5
  GI50: > 100 µM (inactive)
U-251
  GI50: > 100 µM (inactive)
